Assay results reported in US20030216361A1, “Therapeutic compositions effective against gram positive bacteria” (priority 2000, published 2003).
Converted amounts (≈) assume the structure as drawn. Read-outs that look alike come from different tables or passages of the source.

Legend:
[1] = system: Stenotrophomonas maltophilia ATCC 13637; assay: Disk diffusion susceptibility testing
[2] = system: Vancomycin-resistant E. faecalis; assay: Broth macrodilution MIC and MBC, clinical isolates; details: 2 strains
S. aureus ATCC 29213 = assay: Effect of pH on broth macrodilution MICs; format: cell-based, Staphylococcus aureus
[3] = system: Candida albicans ATCC 90028; assay: Disk diffusion susceptibility testing
Gordona bronchialis = assay: Broth macrodilution MIC and MBC, clinical isolates; details: clinical isolate, 1 strain
Invasive S. pneumoniae = assay: Broth macrodilution MIC and MBC, clinical isolates
R. equi = assay: Broth macrodilution MIC and MBC, clinical isolates; details: 3 strains
Bacillus subtilis = assay: Broth macrodilution MIC and MBC, clinical isolates; details: 4 strains
[4] = system: Methicillin-resistant Staphylococcus aureus; assay: Broth macrodilution MIC and MBC, clinical isolates
[5] = system: Micrococcus luteus Presque Isle 456; assay: Broth macrodilution MIC and MBC, reference strains
[6] = system: Enterococcus faecalis 29212; assay: Time-kill studies; format: cell-based; details: E. faecalis
From the text: (§1) This experiment illustrates a study of the time required (time-kill studies) for anti-microbial action of 3β-acetoxy-17β-(L-prolyl) amino-5α-androstane with certain gram positive bacteria.
(§2) Overnight cultures of Staphylococcus aureus 29213, Enterococcus faecalis 29212 and S. pneumoniae 6303 in MHII broth were inoculated into the same medium containing multiples of the broth macrodilution MIC of 3β-acetoxy-17β-(L-prolyl) amino-5α-androstane, or an equivalent volume of MeOH. Cultures were shaken at 37° C., and aliquots were aseptically removed at various times for dilution plating. Standard errors of the means were calculated from at least two experiments. The detection limit in these experiments was 10 CFU/ml.

[7] = system: Staphylococcus aureus 29213; assay: Time-kill studies; format: cell-based; details: S. aureus
From the text: as §1, §2

[8] = system: Bacillus subtilis Presque Isle 620; assay: Broth macrodilution MIC and MBC, reference strains
S. saprophyticus = assay: Broth macrodilution MIC and MBC, clinical isolates; details: 3 strains
[9] = system: Penicillin-resistant Streptococcus pneumoniae; assay: Broth macrodilution MIC and MBC, clinical isolates
[10] = system: Corynebacterium diphtheriae, clinical isolate; assay: Effect of pH on broth macrodilution MICs; format: cell-based
[11] = system: S. epidermidis Presque Isle 4653; assay: Broth macrodilution MIC and MBC, reference strains; details: Staphylococcus epidermidis
[12] = pH 6, range of 3 determinations
[13] = pH 7, range of 3 determinations
[14] = pH 8, range of 3 determinations

In the case of CC(=O)O[C@H]1CC[C@@]2(C)[C@@H](CC[C@@H]3[C@@H]2CC[C@]2(C)[C@@H](NC(=O)[C@@H]4CCCN4)CC[C@@H]32)C1, the MIC [1] is reported as >100 μg/disk, the “MBC Range” value [2] is reported as 16 to 64 µg/mL and the “MIC Range” value [2] is reported as 8 to 16 µg/mL. It also gave an MIC Range (S. aureus ATCC 29213; [12]) of 8 to 16 µg/mL, an MIC Range (S. aureus ATCC 29213; [13]) of 8 µg/mL (≈ 18.6 µM) and an MIC Range (S. aureus ATCC 29213; [14]) of 4 µg/mL (≈ 9.29 µM). The MIC [3] was >100 μg/disk, the “MBC Range” value (Gordona bronchialis) was 8 µg/mL (≈ 18.6 µM) and the “MIC Range” value (Gordona bronchialis) was 8 µg/mL (≈ 18.6 µM). For the same compound, the MIC50 (Invasive S. pneumoniae; Streptococcus pneumoniae) was 8 µg/mL (≈ 18.6 µM), the “MBC Range” value (Invasive S. pneumoniae; clinical isolates, 15 strains) was 8 to 64 µg/mL and the “share of strains with MBC/MIC ratios ≦2” value (Invasive S. pneumoniae; invasive S. pneumoniae) was 93%. The “MBC Range” value (R. equi) was 16 to 32 µg/mL, the “MIC Range” value (R. equi; read after 48 h) was 4 to 8 µg/mL and the “MIC Range” value (Bacillus subtilis) was 8 µg/mL (≈ 18.6 µM). It also gave an MIC50 ([4]; Staphylococcus aureus) of 8 µg/mL (≈ 18.6 µM), an MIC90 ([4]; Staphylococcus aureus) of 8 µg/mL (≈ 18.6 µM) and an MBC ([4]; Staphylococcus aureus, read-out: MBC 50%) of 16 µg/mL (≈ 37.2 µM). The MBC ([4]; Staphylococcus aureus, read-out: MBC 90%) was > 64 µg/mL, the “MIC Range” value ([4]; clinical isolates, 22 strains) was 4 to 8 µg/mL and the “share of strains with MBC/MIC ratios ≦2” value ([4]; methicillin-resistant S. aureus) was 73%. For the same compound, the MBC [5] was 64 µg/mL (≈ 149 µM), the MIC [5] was 8 µg/mL (≈ 18.6 µM) and the “Killing (time dependence)” value [6] was “time-dependent”. For the same compound, the “time to 99.9% kill” value ([6]; eight times the MIC) was 4 h, the “survivors after 24 h” value ([6]; eight times the MIC) was “no survivors” and the “time to 99.9% kill” value ([6]; four times the MIC) was 8 h. For the same compound, the “survivors after 24 h” value ([6]; four times the MIC) was “no survivors”, the “time to 99.9% kill” value ([6]; two times the MIC) was 8 h and the “Killing (time dependence)” value [7] was “time-dependent”. The MBC [8] was 4 µg/mL (≈ 9.29 µM), the MIC [8] was 4 µg/mL (≈ 9.29 µM) and the “MBC Range” value (S. saprophyticus) was 8 µg/mL (≈ 18.6 µM). The “MIC Range” value (S. saprophyticus) was 4 to 8 µg/mL, the MIC50 ([9]; Streptococcus pneumoniae) was 16 µg/mL (≈ 37.2 µM) and the MIC90 ([9]; Streptococcus pneumoniae) was 16 µg/mL (≈ 37.2 µM). For the same compound, the MBC ([9]; Streptococcus pneumoniae, read-out: MBC 50%) was 16 µg/mL (≈ 37.2 µM), the MBC ([9]; Streptococcus pneumoniae, read-out: MBC 90%) was 32 µg/mL (≈ 74.3 µM) and the “MIC Range” value ([9]; clinical isolates, 35 strains) was 8 to 32 µg/mL. The “share of strains with MBC/MIC ratios ≦2” value ([9]; penicillin-resistant S. pneumoniae) was 88%, the MIC Range [10, 12] was 16 µg/mL (≈ 37.2 µM) and the MIC Range [10, 13] was 4 to 8 µg/mL. The MIC Range [10, 14] was 2 to 4 µg/mL, the MBC [11] was 32 µg/mL (≈ 74.3 µM) and the MIC [11] was 8 µg/mL (≈ 18.6 µM).
